≈ marks a conversion by molar mass, not a printed value. Where a SMILES comes first, the peptide text is derived from it. [ ]: non-standard residue; d: D form. ξ: configuration not given here. ξW = NC(Cc1c[nH]c2ccccc12)C(=O)O
How the values were obtained:
[1] = system: Staphylococcus aureus; test: Antimicrobial activity against Vancomycin-resistant Staphylococcus aureus incubated for 20 hrs by broth dilution method; assay type: functional
[2] = system: Enterococcus faecium; test: Antimicrobial activity against Vancomycin-resistant (Van A) Enterococcus faecium ATCC 51559 assessed as reduction in microbial growth; assay type: functional
[3] = system: Staphylococcus aureus; test: Antibacterial activity against Vancomycin-intermediate Staphylococcus aureus NRS1 assessed as bacterial growth inhibition; assay type: functional
[4] = system: Acinetobacter baumannii; test: Antibacterial activity against Acinetobacter baumannii R4942 assessed as reduction in bacterial growth by broth microdilution method; assay type: functional
[5] = system: Enterobacter cloacae; test: Antibacterial activity against Enterobacter cloacae NDM-1 assessed as reduction in bacterial growth by broth microdilution method; assay type: functional
[6] = system: Staphylococcus aureus; test: Antibacterial activity against Vancomycin-intermediate Staphylococcus aureus 3797 assessed as inhibition in bacterial growth; assay type: functional
[7] = system: Enterococcus faecium; test: Antimicrobial activity against Vancomycin-resistant (Van M) Enterococcus faecium ATCC 51559 assessed as reduction in microbial growth; assay type: functional
[8] = system: Staphylococcus aureus; test: Antibacterial activity against Vancomycin-intermediate Staphylococcus aureus Mu50 assessed as bacterial growth inhibition; assay type: functional
[9] = Binding affinity to D-Ala-D-Ala
[10] = Binding affinity to D-Ala-D-Lac
[11] = system: Pseudomonas aeruginosa; test: Antibacterial activity against extensively drug resitant Pseudomonas aeruginosa; assay type: functional, organism-based
[12] = system: Enterococcus faecium; test: Antimicrobial activity against Vancomycin-resistant Enterococcus faecium assessed as reduction in microbial growth; assay type: functional
[13] = system: Enterococcus faecalis; test: Antimicrobial activity against Vancomycin-sensitive Enterococcus faecalis ATCC 29212 assessed as reduction in microbial growth; assay type: functional
[14] = system: Staphylococcus aureus; test: Antibacterial activity against Vancomycin-resistant Staphylococcus aureus assessed as bacterial growth inhibition measured after 48 hrs by microbroth dilution method; assay type: functional
[15] = system: Staphylococcus aureus; test: Antibacterial activity against Vancomycin-intermediate Staphylococcus aureus assessed as bacterial growth inhibition measured after 24 hrs by microbroth dilution method; assay type: functional
[16] = system: Pseudomonas aeruginosa; test: Antibacterial activity against Pseudomonas aeruginosa ATCC 27853 assessed as bacterial growth inhibition measured after 24 hrs by microbroth dilution method; assay type: functional
[17] = system: Pseudomonas aeruginosa; test: Synergistic antibacterial activity against multidrug-resistant Pseudomonas aeruginosa ATCC 27853 assessed as reduction in bacterial viability after 12 hrs in presence of 1/2 MIC of vancomycin; assay type: functional
[18] = system: Enterococcus faecalis; test: Antimicrobial activity against Vancomycin - resistant Enterococcus faecalis assessed as inhibition of bacterial growth; assay type: functional
[19] = Enterococcus faecium, ATCC 51559, read-out: MIC
[20] = Enterococcus faecium, read-out: MIC

## CCCCCCCC[N+](C)(C)CCCNC(=O)[C@H]1NC(=O)[C@H]2NC(=O)[C@H](NC(=O)[C@@H]3NC(=O)[C@H](CC(N)=O)NC(=O)[C@H](NC(=O)[C@@H](CC(C)C)NC)[C@H](O)c4ccc(c(Cl)c4)Oc4cc3cc(c4O[C@@H]3O[C@H](CO)[C@@H](O)[C@H](O)[C@H]3O[C@H]3C[C@](C)(N)[C@H](O)[C@H](C)O3)Oc3ccc(cc3Cl)[C@H]2O)c2ccc(O)c(c2)-c2c(O)cc(O)cc21
[1]
  MIC: 0.3 µM
[2]; [19]
  MIC: 12 µM
[3]
  MIC: 0.4 µM
[4]
  MIC: 7 µM
[5]
  MIC: > 100 µM

## CN[C@H](CC(C)C)C(=O)N[C@H]1C(=O)N[C@@H](CC(N)=O)C(=O)N[C@H]2C(=O)N[C@H]3C(=O)N[C@H](C(=O)N[C@H](C(=O)NC[C@H]4OB(O)c5ccccc54)c4cc(O)cc(O)c4-c4cc3ccc4O)[C@H](O)c3ccc(c(Cl)c3)Oc3cc2cc(c3O[C@@H]2O[C@H](CO)[C@@H](O)[C@H](O)[C@H]2O[C@H]2C[C@](C)(N)[C@H](O)[C@H](C)O2)Oc2ccc(cc2Cl)[C@H]1O
[6]
  MIC: 1 µM

## CN[C@H](CC(C)C)C(=O)N[C@H]1C(=O)N[C@@H](CC(N)=O)C(=O)N[C@H]2C(=O)N[C@H]3C(=O)N[C@H](C(=O)N[C@H](C(=O)O)c4cc(O)c(CNCCO[C@@H]5O[C@H](CO)[C@H](O)[C@H](O)[C@H]5O)c(O)c4-c4cc3ccc4O)[C@H](O)c3ccc(c(Cl)c3)Oc3cc2cc(c3O[C@@H]2O[C@H](CO)[C@@H](O)[C@H](O)[C@H]2O[C@H]2C[C@](C)(NCc3ccc(-c4ccc(C(F)(F)F)cc4)cc3)[C@H](O)[C@H](C)O2)Oc2ccc(cc2Cl)[C@H]1O
[2]
  MIC: ≤ 0.06 µg/mL
[2]; [19]
  MIC: 1 µg/mL
[7]
  MIC: 2 µg/mL
[8]
  MIC: 0.25 µg/mL (≈ 0.13 µM)

## CN[C@H](CC(C)C)C(=O)N[C@H]1C(=O)N[C@@H](CC(N)=O)C(=O)N[C@H]2C(=N)N[C@H]3C(=O)N[C@H](C(=O)N[C@H](C(=O)O)c4cc(O)cc(O)c4-c4cc3ccc4O)[C@H](O)c3ccc(c(Cl)c3)Oc3cc2cc(c3O)Oc2ccc(cc2Cl)[C@H]1O
[9]
  Ka: 7.3 10^4/M
[10]
  Ka: 6.9 10^4/M

## CN[C@H](CC(C)C)C(=O)N[C@H]1C(=O)N[C@@H](CC(N)=O)C(=O)N[C@H]2C(=S)N[C@H]3C(=O)N[C@H](C(=O)N[C@H](C(=O)O)c4cc(O)cc(O)c4-c4cc3ccc4O)[C@H](O)c3ccc(c(Cl)c3)Oc3cc2cc(c3O)Oc2ccc(cc2Cl)[C@H]1O
[9]
  Ka: 1.7 10^2/M
[10]
  Ka: 1.1 10^1/M

## POLYMYXIN B
[11]
  MIC: 2 µg/mL

## CCCCCCCC[n+]1ccc(CN[C@@]2(C)C[C@H](O[C@H]3[C@H](Oc4c5cc6cc4Oc4ccc(cc4Cl)[C@@H](O)[C@@H](NC(=O)[C@@H](CC(C)C)NC)C(=O)N[C@@H](CC(N)=O)C(=O)N[C@H]6C(=O)N[C@H]4C(=O)N[C@H](C(=O)N[C@H](C(=O)NC(=O)[C@H](O)[C@@H](O)[C@H](O[C@@H]6O[C@H](CO)[C@@H](O)[C@H](O)[C@H]6O)[C@H](O)CO)c6cc(O)cc(O)c6-c6cc4ccc6O)[C@H](O)c4ccc(c(Cl)c4)O5)O[C@H](CO)[C@@H](O)[C@@H]3O)O[C@@H](C)[C@H]2O)cc1
[12]; [20]
  MIC: 0.09 µM
[13]
  MIC: 0.1 µM
[2]; [19]
  MIC: 0.09 µM
[3]
  MIC: 0.1 µM
[10]
  Ka: 5.7 10^4/M

## N=C(N)NCCC[C@H](NC(=O)[C@H](CCCNC(=N)N)NC(=O)[C@H](Cc1c[nH]c2ccccc12)NC(=O)[C@H](Cc1c[nH]c2ccccc12)NC(=O)[C@H](CCCNC(=N)N)NC(=O)[C@H](CCCNC(=N)N)NC(=O)[C@H](Cc1c[nH]c2ccccc12)NC(=O)C(Cc1c[nH]c2ccccc12)NC(=O)[C@H](CCCNC(=N)N)NC(=O)[C@H](Cc1c[nH]c2ccccc12)NC(=O)[C@H](Cc1c[nH]c2ccccc12)NC(=O)[C@@H](N)CCCNC(=N)N)C(=O)O (some centres not stated) (H-RWWR[ξW]WRRWWRR-OH)
[14]
  MIC: 1 µg/mL (≈ 0.483 µM)
[15]
  MIC: 4 µg/mL (≈ 1.93 µM)

## H-IRIKIRIK-OH
[14]
  MIC: 8 µg/mL
[15]
  MIC: 8 µg/mL

## CN[C@H](CC(C)C)C(=O)N[C@H]1C(=O)N[C@@H](CC(N)=O)C(=O)N[C@H]2C(=O)N[C@H]3C(=O)N[C@H](C(=O)N[C@H](C(=O)O)c4cc(O)cc(O)c4-c4cc3ccc4O)[C@H](O)c3ccc(c(Cl)c3)Oc3cc2cc(c3O[C@@H]2O[C@H](CO)[C@@H](O)[C@H](O)[C@H]2O[C@H]2C[C@](C)(NCc3cccc(OCCSSCCOc4cccc(CN[C@@]5(C)C[C@H](O[C@H]6[C@H](Oc7c8cc9cc7Oc7ccc(cc7Cl)[C@@H](O)[C@@H](NC(=O)[C@@H](CC(C)C)NC)C(=O)N[C@@H](CC(N)=O)C(=O)N[C@H]9C(=O)N[C@H]7C(=O)N[C@H](C(=O)N[C@H](C(=O)O)c9cc(O)cc(O)c9-c9cc7ccc9O)[C@H](O)c7ccc(c(Cl)c7)O8)O[C@H](CO)[C@@H](O)[C@@H]6O)O[C@@H](C)[C@H]5O)c4)c3)[C@H](O)[C@H](C)O2)Oc2ccc(cc2Cl)[C@H]1O
[12]; [20]
  MIC: 1 µg/mL
[3]
  MIC: 8 µg/mL

## CC(=O)N[C@@H]1[C@H](Oc2c3cc4cc2Oc2ccc(cc2Cl)[C@@H](O[C@@H]2O[C@@H](CO)[C@@H](O)[C@H](O)[C@@H]2NC(C)=O)[C@@H]2NC(=O)[C@H](NC(=O)[C@@H]4NC(=O)[C@H]4NC(=O)[C@@H](Cc5ccc(c(Cl)c5)O3)NC(=O)[C@H](N)c3ccc(O)c(c3)Oc3cc(O)cc4c3)c3ccc(O)c(c3)-c3c(O[C@H]4O[C@H](CO)[C@@H](O)[C@@H](O)[C@@H]4O)cc(O)cc3[C@@H](C(=O)O)NC2=O)O[C@@H](CO)[C@@H](O)[C@@H]1O
[16]
  MIC: 256 µg/mL (≈ 145 µM)
[17]
  fractional inhibitory concentration index (FICI): <0.5

## CCCCCCCCN(CCCNC(=O)[C@H]1NC(=O)[C@H]2NC(=O)[C@H](NC(=O)[C@@H]3NC(=O)[C@H](CC(N)=O)NC(=O)[C@H](NC(=O)[C@@H](CC(C)C)NC)[C@H](O)c4ccc(c(Cl)c4)Oc4cc3cc(c4O)Oc3ccc(cc3Cl)[C@H]2O)c2ccc(O)c(c2)-c2c(O)cc(O)cc21)CCCNC(=O)[C@H]1NC(=O)[C@H]2NC(=O)[C@H](NC(=O)[C@@H]3NC(=O)[C@H](CC(N)=O)NC(=O)[C@H](NC(=O)[C@@H](CC(C)C)NC)[C@H](O)c4ccc(c(Cl)c4)Oc4cc3cc(c4O)Oc3ccc(cc3Cl)[C@H]2O)c2ccc(O)c(c2)-c2c(O)cc(O)cc21
[2]; [19]
  MIC: 2.5 µM
[6]
  MIC: 0.6 µM
[9]
  Ka: 1 10^5/M
[10]
  Ka: 5.7 10^3/M

## CCCCCCCCCCN[C@@]1(C)C[C@H](O[C@H]2[C@H](Oc3c4cc5cc3Oc3ccc(cc3Cl)[C@@H](O)[C@@H](NC(=O)[C@@H](CC(C)C)NC)C(=O)N[C@@H](CC(N)=O)C(=O)N[C@H]5C(=O)N[C@H]3C(=O)N[C@H](C(=O)N[C@H](C(=O)ONCCCNC(=O)[C@H](O)[C@@H](O)[C@H](O[C@@H]5O[C@H](CO)[C@H](O)[C@H](O)[C@H]5O)[C@H](O)CO)c5cc(O)cc(O)c5-c5cc3ccc5O)[C@H](O)c3ccc(c(Cl)c3)O4)O[C@H](CO)[C@@H](O)[C@@H]2O)O[C@@H](C)[C@H]1O
[18]
  MIC: 0.7 µM (≈ 1.4 µg/mL)
[2]
  MIC: 1 µM
[2]; [19]
  MIC: 0.7 µM
[10]
  Ka: 6 10^4/M

## CN[C@H](CC(C)C)C(=O)N[C@H]1C(=O)N[C@@H](CC(N)=O)C(=O)N[C@H]2CN[C@H]3C(=O)N[C@H](C(=O)N[C@H](C(=O)O)c4cc(O)cc(O)c4-c4cc3ccc4O)[C@H](O)c3ccc(c(Cl)c3)Oc3cc2cc(c3O)Oc2ccc(cc2Cl)[C@H]1O
[9]
  Ka: 4.8 10^3/M
[10]
  Ka: 5.2 10^3/M

## CCCCCCCCCCC(=O)N[C@@H](CCCCN)C(=O)N[C@@H](CCCCN)C(=O)NC(CCCCNC(=O)[C@H]1NC(=O)[C@H]2NC(=O)[C@H](NC(=O)[C@@H]3NC(=O)[C@H](CC(N)=O)NC(=O)[C@H](NC(=O)[C@@H](CC(C)C)NC)[C@H](O)c4ccc(c(Cl)c4)Oc4cc3cc(c4O[C@@H]3O[C@H](CO)[C@@H](O)[C@H](O)[C@H]3O[C@H]3C[C@](C)(N)[C@H](O)[C@H](C)O3)Oc3ccc(cc3Cl)[C@H]2O)c2ccc(O)c(c2)-c2c(O)cc(O)cc21)C(N)=O (some centres not stated)
[2]; [19]
  MIC: 2 µg/mL
[3]
  MIC: 0.03 µg/mL
[6]
  MIC: 0.06 µg/mL

## CN[C@H](CC(C)C)C(=O)N[C@H]1C(=O)N[C@@H](CC(N)=O)C(=O)N[C@H]2C(=O)N[C@H]3C(=O)N[C@H](C(=O)N[C@H](C(=O)O)c4cc(O)c(CN[C@H]5C(O)O[C@H](CO)[C@H](O)[C@@H]5O)c(O)c4-c4cc3ccc4O)[C@H](O)c3ccc(c(Cl)c3)Oc3cc2cc(c3O[C@@H]2O[C@H](CO)[C@@H](O)[C@H](O)[C@H]2O[C@H]2C[C@](C)(NCc3ccc(-c4ccc(Cl)cc4)cc3)[C@H](O)[C@H](C)O2)Oc2ccc(cc2Cl)[C@H]1O (some centres not stated)
[2]
  MIC: 0.25 µg/mL
[2]; [19]
  MIC: 2 µg/mL
[7]
  MIC: 4 µg/mL
[8]
  MIC: 0.12 µg/mL (≈ 0.0652 µM)

## CN[C@H](CC(C)C)C(=O)N[C@H]1C(=O)N[C@@H](CC(N)=O)C(=O)N[C@H]2C(=O)N[C@H]3C(=O)N[C@H](C(=O)N[C@H](C(=O)NCCC[N+](C)(C)C)c4cc(O)cc(O)c4-c4cc3ccc4O)[C@H](O)c3ccc(c(Cl)c3)Oc3cc2cc(c3O[C@@H]2O[C@H](CO)[C@@H](O)[C@H](O)[C@H]2O[C@H]2C[C@](C)(NCc3ccc(-c4ccc(Cl)cc4)cc3)[C@H](O)[C@H](C)O2)Oc2ccc(cc2Cl)[C@H]1O
[12]
  MIC: 0.01 µg/mL
[2]; [19]
  MIC: 0.01 µg/mL

Source: ChEMBL document CHEMBL5230081, “Battle against Vancomycin-Resistant Bacteria: Recent Developments in Chemical Strategies” (J Med Chem, 2019)
